From US20140128352A1, “COMPOUNDS AND METHODS FOR MODULATING MITOCHONDRIAL METABOLISM AND REACTIVE OXYGEN SPECIES PRODUCTION” (Buck Institute for Research on Aging, priority 2012, published 2014)

Tests used:
site IIIQo = target: T1, site IIIQo (Rattus norvegicus, UniProt P00159+P20788); experiment: Retest of IIIQo ROS production (expanded microplate panel); assay type: biochemical
T1 construct: freshly isolated muscle mitochondria were assayed; from tissue; host or cells: rat skeletal muscle mitochondria (Wistar, Harlan Laboratories)
Protocol: Compounds identified as site-selective hits as well as structural analogs were re-sourced from ChemBridge and dissolved in DMSO as 80 mM stocks. Master Titration Plates were prepared manually by serially diluting 80 mM compound stocks between 0.08 and 80 mM on 96-well microplates. Four compounds were titrated in duplicate on each plate. Additional DMSO controls were interspersed across these plates to serve as local normalization controls during analysis since two-way median polishing was not appropriate. Just prior to use, compounds were diluted 100-fold with standard buffer (10X). The same known inhibitor positive controls were included on each plate as during high-throughput screening. The five core ROS assays and single ΔΨm assay were carried out as in the initial high-throughput screen. In addition, several assays were included to help validate the specificity of the compounds for a given site of production. […] The use of different substrates was designed to reveal compounds that disrupt mitochondrial function in a substrate specific manner. […] Most frequently, these changes involved the use of different substrates to supply electrons from an alternative entry point in the chain. If a site of ROS production is being targeted selectively by a compound, then in many cases the supply of electrons should not influence the effectiveness of this compound at suppressing ROS production. […] The fluorescence values in each well were scaled in relation to the intra-plate DMSO and known inhibitor controls as in the high-throughput screen except that median values for local interspersed DMSO wells (3-6 wells) were used rather than just the 8 DMSO wells in columns 1 and 12. This normalization was applied in place of the two-way median polish used during high-throughput screening to minimize row and column effects. […] At this stage, strong candidates were not necessarily excluded from further testing if subtle off-target effects were observed (e.g. loss of specificity or signs of general inhibition at the highest concentrations). Rather, these candidates were often pursued for more detailed mechanistic studies with the expectation that subsequent structure activity analysis would provide insight into which structurally related compounds would provide the optimal specificity for a given site of production.

GPDH = target: T2, GPDH (Rattus norvegicus, UniProt P35571); experiment: Retest of GPDH ROS production (expanded microplate panel / cuvette); assay type: biochemical; conditions: microplate or cuvette
T2 construct: from tissue; host or cells: rat skeletal muscle mitochondria (Wistar, Harlan Laboratories)
T2 sequence (P35571 43-727): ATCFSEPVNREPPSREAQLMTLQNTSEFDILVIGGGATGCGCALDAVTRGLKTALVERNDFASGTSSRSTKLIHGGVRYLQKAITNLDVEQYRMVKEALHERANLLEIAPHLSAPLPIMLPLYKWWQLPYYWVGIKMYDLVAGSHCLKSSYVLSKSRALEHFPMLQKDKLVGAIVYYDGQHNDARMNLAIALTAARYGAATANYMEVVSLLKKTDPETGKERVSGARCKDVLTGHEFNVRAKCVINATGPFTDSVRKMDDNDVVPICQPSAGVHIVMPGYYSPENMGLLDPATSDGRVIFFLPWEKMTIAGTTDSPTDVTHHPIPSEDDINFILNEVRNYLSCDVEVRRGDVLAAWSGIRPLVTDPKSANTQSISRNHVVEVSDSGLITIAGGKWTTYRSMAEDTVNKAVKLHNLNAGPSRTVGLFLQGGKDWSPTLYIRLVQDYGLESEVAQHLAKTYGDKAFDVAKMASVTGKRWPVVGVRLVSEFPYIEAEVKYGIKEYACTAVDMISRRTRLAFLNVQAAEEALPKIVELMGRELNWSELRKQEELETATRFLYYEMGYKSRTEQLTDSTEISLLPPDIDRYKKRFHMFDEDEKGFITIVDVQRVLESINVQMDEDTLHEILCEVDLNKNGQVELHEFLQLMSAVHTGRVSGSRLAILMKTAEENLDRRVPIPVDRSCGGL
Protocol: Compounds identified as site-selective hits as well as structural analogs were re-sourced from ChemBridge and dissolved in DMSO as 80 mM stocks. Master Titration Plates were prepared manually by serially diluting 80 mM compound stocks between 0.08 and 80 mM on 96-well microplates. Four compounds were titrated in duplicate on each plate. Additional DMSO controls were interspersed across these plates to serve as local normalization controls during analysis since two-way median polishing was not appropriate. Just prior to use, compounds were diluted 100-fold with standard buffer (10X). The same known inhibitor positive controls were included on each plate as during high-throughput screening.
The five core ROS assays and single ΔΨm assay were carried out as in the initial high-throughput screen. In addition, several assays were included to help validate the specificity of the compounds for a given site of production. All compounds were titrated against separate assays targeting IQ ROS and IIIQo ROS using subsaturating (0.5 mM final) succinate. […] Specifically, ΔΨm was monitored separately with 5 mM succinate (in the presence of 4 μM rotenone) in addition to glutamate and malate as before. The use of different substrates was designed to reveal compounds that disrupt mitochondrial function in a substrate specific manner.
Most frequently, these changes involved the use of different substrates to supply electrons from an alternative entry point in the chain. If a site of ROS production is being targeted selectively by a compound, then in many cases the supply of electrons should not influence the effectiveness of this compound at suppressing ROS production. […]
The fluorescence values in each well were scaled in relation to the intra-plate DMSO and known inhibitor controls as in the high-throughput screen except that median values for local interspersed DMSO wells (3-6 wells) were used rather than just the 8 DMSO wells in columns 1 and 12. […]

SMILES	effect on IIIQo ROS (site IIIQo)	inhibition at 8 µM (site IIIQo; 8 μM, independent of substrate concentration) [%]	effect on GPDH ROS on retesting (GPDH)
COc1ccc(Cl)cc1N(Cc1ccccc1)Cc1ccccc1 [Compound 34]	selectively lowers ROS production from site IIIQo independent of substrate concentration	60	–
CC1=CC(C)(C)N(Cc2ccc([N+](=O)[O-])cc2)c2ccccc21 [Compound 37]	lowers ROS from site IIIQo independent of substrate concentration	–	–
O=C(O)CCC(=O)Nc1ccc(-c2nc3cc4ccccc4cc3[nH]2)cc1 [Compound 61]	–	–	more potent inhibitor of GPDH-specific ROS, ΔΨm, and respiration
O=C(O)C1CCCCC1C(=O)NC1CCCCC1 (stereo not shown) [Compound 19]	unaffected until the highest concentration tested (80 μM)	–	–
O=C(O)CSc1cccc(C(=O)Nc2ccc(Br)cc2)c1 [Compound 47]	off-target effect on site IIIQo ROS	–	progressively inhibited GPDH ROS
